Laboratory results as given in PubChem BioAssay (NCI).
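The compound was tested at five concentrations on cells cultured in 96-well plates, with a 48-hour exposure period. GI50 marks 50% less growth. The concentration for full growth arrest is given as TGI.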

Columns and labels:
Experiment in all cases: NCI-60 cell line screen, 48 h
NCI-H23 lung = tested on: NCI-H23 lung
MDA-MB-231 breast = tested on: MDA-MB-231 breast
UO-31 renal = tested on: UO-31 renal
SK-OV-3 ovarian = tested on: SK-OV-3 ovarian
SK-MEL-2 melanoma = tested on: SK-MEL-2 melanoma
HS 578T breast = tested on: HS 578T breast
SF-268 CNS = tested on: SF-268 CNS
MDA-MB-435 = tested on: MDA-MB-435
HCT-116 colon = tested on: HCT-116 colon
SN12C renal = tested on: SN12C renal
EKVX NSCLC = tested on: EKVX NSCLC

SMILES	TGI (NCI-H23 lung) [µM]	TGI (MDA-MB-231 breast) [µM]	TGI (UO-31 renal) [µM]	TGI (SK-OV-3 ovarian) [µM]	TGI (SK-MEL-2 melanoma) [µM]	TGI (HS 578T breast) [µM]	TGI (SF-268 CNS) [µM]	TGI (MDA-MB-435) [µM]	TGI (HCT-116 colon) [µM]	TGI (SN12C renal) [µM]	TGI (EKVX NSCLC) [µM]	GI50 (NCI-H23 lung) [µM]	GI50 (MDA-MB-231 breast) [µM]	GI50 (SK-OV-3 ovarian) [µM]	GI50 (SK-MEL-2 melanoma) [µM]	GI50 (SF-268 CNS) [µM]	GI50 (MDA-MB-435) [µM]	GI50 (HCT-116 colon) [µM]	GI50 (SN12C renal) [µM]
O=C1Cc2c([nH]c3ccc(C(=O)O)cc23)-c2ccccc2N1	> 100	> 100	> 100	> 100	> 100	> 100	> 100	> 100	> 100	> 100									
OC(c1cccnc1Cl)c1nc2ccccc2c2ccnc(Cl)c12 (centres undefined)	> 100	> 100	> 100	63.4	> 100	9.4	> 100	4.89	> 100	45.8	> 100								
Nc1ncnc2c1ncn2[C@@H]1O[C@H](COC(c2ccccc2)(c2ccccc2)c2ccccc2)[C@@H](OC(=S)Oc2ccccc2)[C@@H]1F	16	23.7	13.2	30.8	19.4	25.1	12.4	19.1	13.8	15.1	26.6								
COc1ccc(CNc2cc(=O)n(C)c(=O)[nH]2)cc1	> 100	> 100	> 100	> 100	> 100	> 100	> 100	> 100	> 100	> 100	> 100								
COc1cccc(C(=O)C#Cc2cnc(OC)nc2OC)c1	5.5	7.42	2.67	44.9	3.95	> 30.2	6.14	5.24	7.67	2	3.9								
CO/N=C1/c2sccc2[C@H](NC(=O)C(Cc2ccccc2)NC(=O)OC(C)(C)C)[C@@H]1O (some centres undefined)	> 100	> 100	> 100	> 100	> 100	> 100	> 100	> 100	> 100	> 100	> 100								
CCOC(=O)C1CCCCN1C(=O)Cc1c[nH]c2ccccc12 (centres undefined)	> 100	> 100		> 100	> 100	> 100	> 100	> 100	> 100	> 100	> 100								
COc1cc(CNc2nc3ccccc3nc2C(=O)O)cc(OC)c1OC	> 100	> 100	> 100	> 100		> 100	> 100	> 100	> 100	> 100	> 100								
CCN(CC)c1nnc(CCCCCCCCc2nnc(N(CC)CC)o2)o1	> 100	> 100	> 100	> 100	> 100		> 100	> 100	> 100	> 100	> 100								
COc1ccc(Nc2ccc([N+](=O)[O-])cc2[N+](=O)[O-])cc1CN(CCCl)CCCl	5.77	9.44		> 100	5.66		16.8	4.39	3.75	> 100		2.04	2.69	3.85	2.28	2.44	1.92	1.16	2.6
COC(=O)C(=O)Cc1nc2ccccc2o1	> 100		> 100	> 100	> 100		> 100		> 100	> 100	> 100								
N#CCCC1(CCC#N)CCCCCCCCC(CCC#N)(CCC#N)C(O)C1O (centres undefined)	> 100			> 100	> 100	91.3	> 100	> 100	> 100	> 100	> 100								
CC(C)(CCC(C)(C)N1OC1c1ccccc1)N1OC1c1ccccc1 (centres undefined)	> 100	> 100	62.7	> 100	> 100	> 100	> 100	> 100	> 100	> 100									
CCOC(=O)Cn1nnc2ccc(Nc3nc4ccccc4nc3-c3ccccc3)cc21	> 100		14.5	> 100	> 100	> 100	> 100	> 100	> 100	> 100	> 100								
CC(=O)O[C@H]1CC[C@@]2(C)C(=CC[C@@H]3[C@@H]2CC[C@]2(C)c4nc(Cl)ccc4C[C@@H]32)C1	19.4	> 100	> 100	> 100			> 100	> 100	> 100	> 100	> 100								
CCCCCCCCCCCC[N+](CCCCCCCCCCCC)=C1SCCS1	9.05		26.2	30.1	23.2		21.5		10.9	14.6	26								
Nc1ccc(Nc2cc(=O)[nH]c(=O)[nH]2)cc1Cl	> 100	> 100	> 100	> 100	> 100	> 100	> 100	> 100	> 100	> 100									
O=C1CCCC/C1=C\c1ccc(Cl)c(Cl)c1	71.3		34	> 100			59.4		31.9	31	> 100								
CCN(CCN(CC)C(=O)Nc1ccccc1)C(=O)Nc1ccccc1	> 100	> 100	> 100	> 100	> 100	> 100	> 100		> 100	> 100	> 100								
O=NN(CCF)C(=O)NC1CCSCC1	> 100		> 100	> 100	> 100		> 100		> 100	> 100									
C=C1CC[C@@H](C)[C@](C)(CCc2ccoc2)C/C=C\C=C/1C(=O)O	> 100	> 100	> 100	> 100	43.8	> 100		> 100	54.6	> 100	> 100								
